According to US20080021026A1, “BENZOTHIOPHENE INHIBITORS OF RHO KINASE” (priority 2006, published 2008):

These compounds were tested against T1, recombinant N-terminal GST-tagged human Rho kinase 2 (ROCK2, amino acids 1-552) (Homo sapiens, UniProt O75116) (assay: In vitro Rho kinase assay (luciferase-based ATP consumption), ROCK2). Conditions: ROCK2 IC50, recombinant GST-tagged human ROCK2, luciferase-based ATP consumption.
T1 construct: ROCK2, amino acids 1-552; purchased Invitrogen Inc. PV3759
T1 sequence (O75116 1-552): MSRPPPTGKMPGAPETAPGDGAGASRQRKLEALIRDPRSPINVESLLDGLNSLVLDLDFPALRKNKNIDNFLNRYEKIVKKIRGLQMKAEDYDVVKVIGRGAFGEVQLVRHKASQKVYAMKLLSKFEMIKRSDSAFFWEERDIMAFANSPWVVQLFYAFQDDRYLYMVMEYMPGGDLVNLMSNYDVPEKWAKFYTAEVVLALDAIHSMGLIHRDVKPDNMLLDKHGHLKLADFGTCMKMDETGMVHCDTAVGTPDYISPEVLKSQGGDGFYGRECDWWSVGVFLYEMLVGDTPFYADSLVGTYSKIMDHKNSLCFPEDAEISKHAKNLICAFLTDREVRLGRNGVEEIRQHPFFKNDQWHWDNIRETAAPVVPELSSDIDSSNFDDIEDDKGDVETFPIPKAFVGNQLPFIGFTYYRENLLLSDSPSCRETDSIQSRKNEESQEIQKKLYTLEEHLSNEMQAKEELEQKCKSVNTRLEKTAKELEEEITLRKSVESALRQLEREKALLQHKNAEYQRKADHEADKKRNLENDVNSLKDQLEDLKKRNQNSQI
Format: biochemical
Procedure, shortened: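 GST-ROCK2 (aa 1-552, 0.82 μg/ml) with 100 μg/ml S6 peptide and 3 µM ATP in Tris pH 7.5 buffer with MgCl2/CaCl2/EGTA/BSA, compound added just after reaction start, 2 h at 30 °C. Remaining ATP read by luciferase luminescence. Efficacy expressed as percentage of H-1152P positive control.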
With Cc1c(-c2ccnc(N)n2)sc2ccc(C(=O)NCc3ccc(Cl)cc3Cl)cc12 [Example 447, Cc1c(sc2ccc(cc12)C(═O)NCc3ccc(Cl)cc3Cl)-c4ccnc(N)n4] the IC50 was greater than 5 µM.

Same assay, conditions: recombinant GST-tagged human ROCK2, luciferase-based ATP consumption; read-out: ROCK2 IC50
COc1ccc(CNC(=O)c2ccc3sc(-c4ccnc(N)n4)c(C)c3c2)cc1OC [Example 440, COc1ccc(CNC(═O)c2ccc3sc(c(C)c3c2)-c4ccnc(N)n4)cc1OC] showed an IC50 of less than 5 µM. Compound Cc1c(-c2ccnc(N)n2)sc2ccc(C(=O)NCc3cccs3)cc12 [Example 367, Cc1c(sc2ccc(cc12)C(═O)NCc3cccs3)-c4ccnc(N)n4] has an IC50 of less than 5 µM. For Cc1c(-c2ccnc(N)n2)sc2ccc(Nc3cccc(O)c3)cc12 [Example 52, 3-(2-(2-Aminopyrimidin-4-yl)-3-methylbenzo[b]thiophen-5-ylamino)phenol], the IC50 was less than 5 µM. Cc1c(-c2ccnc(N)n2)sc2ccc(C(=O)NCc3ccc(F)cc3)cc12 [Example 383, Cc1c(sc2ccc(cc12)C(═O)NCc3ccc(F)cc3)-c4ccnc(N)n4] gave an IC50 of less than 5 µM. Work on Cc1c(-c2ccnc(N)n2)sc2ccc(C(=O)NCc3ccccc3OC(F)(F)F)cc12 [Example 453, Cc1c(sc2ccc(cc12)C(═O)NCc3ccccc3OC(F)(F)F)-c4ccnc(N)n4] yielded an IC50 greater than 5 µM. For COC[C@@H]1CCCN1C(=O)c1ccc2sc(-c3ccnc(N)n3)c(C)c2c1 [Example 487, COC[C@@H]1CCCN1C(═O)c2ccc3sc(c(C)c3c2)-c4ccnc(N)n4], the IC50 was greater than 5 µM. With CC(=O)c1ccc(N2CCN(C(=O)c3ccc4sc(-c5ccnc(N)n5)c(C)c4c3)CC2)cc1 [Example 550, CC(═O)c1ccc(cc1)N2CCN(CC2)C(═O)c3ccc4sc(c(C)c4c3)-c5ccnc(N)n5] the IC50 was greater than 5 µM. For Cc1c(-c2ccnc(N)n2)sc2ccc(C(=O)NCCc3ccccc3)cc12 [Example 378, Cc1c(sc2ccc(cc12)C(═O)NCCc3ccccc3)-c4ccnc(N)n4], the IC50 was less than 5 µM. For Cc1c(-c2ccnc(N)n2)sc2ccc(C(=O)N(C)C(Cc3ccccc3)c3ccccc3)cc12 (stereo not drawn) [Example 557, CN(C(Cc1ccccc1)c2ccccc2)C(═O)c3ccc4sc(c(C)c4c3)-c5ccnc(N)n5], the IC50 was greater than 5 µM. Compound COc1ccc(N2CCN(C(=O)c3ccc4sc(-c5ccnc(N)n5)c(C)c4c3)CC2)cc1OC [Example 570, COc1ccc(cc1OC)N2CCN(CC2)C(═O)c3ccc4sc(c(C)c4c3)-c5ccnc(N)n5] has an IC50 greater than 5 µM. Cc1c(-c2ccnc(N)n2)sc2ccc(C(=O)N3CCC(N(C)C)C3)cc12 (stereo not drawn) [Example 484, CN(C)C1CCN(C1)C(═O)c2ccc3sc(c(C)c3c2)-c4ccnc(N)n4] gave an IC50 of less than 5 µM. For Cc1c(-c2ccnc(N)n2)sc2ccc(C(=O)N3C(C)CCCC3C)cc12 (stereo not drawn) [Example 483, CC1CCCC(C)N1C(═O)c2ccc3sc(c(C)c3c2)-c4ccnc(N)n4], the IC50 was greater than 5 µM. In the case of CCOC(=O)C1CCN(C(=O)c2ccc3sc(-c4ccnc(N)n4)c(C)c3c2)CC1 [Example 509, CCOC(═O)C1CCN(CC1)C(═O)c2ccc3sc(c(C)c3c2)-c4ccnc(N)n4], the IC50 is reported as greater than 5 µM. Work on Cc1c(-c2ccnc(N)n2)sc2ccc(C(=O)NC3CCN(Cc4ccccc4)CC3)cc12 [Example 452, Cc1c(sc2ccc(cc12)C(═O)NC3CCN(CC3)Cc4ccccc4)-c5ccnc(N)n5] yielded an IC50 of less than 5 µM. For Cc1cccc(CNC(=O)c2ccc3sc(-c4ccnc(N)n4)c(C)c3c2)c1 [Example 375, Cc1cccc(CNC(═O)c2ccc3sc(c(C)c3c2)-c4ccnc(N)n4)c1], the IC50 was less than 5 µM. Cc1c(-c2ccnc(N)n2)sc2ccc(C(=O)NCc3ccc(F)c(F)c3)cc12 [Example 413, Cc1c(sc2ccc(cc12)C(═O)NCc3ccc(F)c(F)c3)-c4ccnc(N)n4] was tested, and the IC50 was less than 5 µM. For Cc1c(-c2ccnc(N)n2)sc2ccc(C(=O)NCc3ccccc3F)cc12 [Example 384, Cc1c(sc2ccc(cc12)C(═O)NCc3ccccc3F)-c4ccnc(N)n4], the IC50 was less than 5 µM. Work on Cc1c(-c2ccnc(N)n2)sc2ccc(C(=O)NC(C)C(C)C)cc12 (stereo not drawn) [Example 349, CC(C)C(C)NC(═O)c1ccc2sc(c(C)c2c1)-c3ccnc(N)n3] yielded an IC50 greater than 5 µM. For Cc1c(-c2ccnc(N)n2)sc2ccc(C(=O)N3CCC(Cc4ccccc4)CC3)cc12 [Example 520, Cc1c(sc2ccc(cc12)C(═O)N3CCC(CC3)Cc4ccccc4)-c5ccnc(N)n5], the IC50 was greater than 5 µM. Work on Cc1c(-c2ccnc(N)n2)sc2ccc(C(=O)NC(C)CCc3ccccc3)cc12 (stereo not drawn) [Example 418, CC(CCc1ccccc1)NC(═O)c2ccc3sc(c(C)c3c2)-c4ccnc(N)n4] yielded an IC50 greater than 5 µM. Compound CCOC(=O)CC1C(=O)NCCN1C(=O)c1ccc2sc(-c3ccnc(N)n3)c(C)c2c1 (stereo not drawn) [Example 529, CCOC(═O)CC1N(CCNC1═O)C(═O)c2ccc3sc(c(C)c3c2)-c4ccnc(N)n4] has an IC50 of less than 5 µM. CCN(C(=O)c1ccc2sc(-c3ccnc(N)n3)c(C)c2c1)C1CCCCC1 [Example 493, CCN(C1CCCCC1)C(═O)c2ccc3sc(c(C)c3c2)-c4ccnc(N)n4] showed an IC50 of less than 5 µM. Cc1c(-c2ccnc(N)n2)sc2ccc(C(=O)NC3CONC3=O)cc12 (stereo not drawn) [Example 360, Cc1c(sc2ccc(cc12)C(═O)NC3CONC3═O)-c4ccnc(N)n4] showed an IC50 of less than 5 µM. Work on Cc1c(-c2ccnc(N)n2)sc2ccc(C(=O)NCCc3ccccc3F)cc12 [Example 406, Cc1c(sc2ccc(cc12)C(═O)NCCc3ccccc3F)-c4ccnc(N)n4] yielded an IC50 of less than 5 µM. Cc1c(-c2ccnc(N)n2)sc2ccc(C(=O)N3CCCC(C(N)=O)C3)cc12 (stereo not drawn) [Example 496, Cc1c(sc2ccc(cc12)C(═O)N3CCCC(C3)C(N)═O)-c4ccnc(N)n4] was tested, and the IC50 was less than 5 µM. CCCCN(Cc1ccccc1)C(=O)c1ccc2sc(-c3ccnc(N)n3)c(C)c2c1 [Example 515, CCCCN(Cc1ccccc1)C(═O)c2ccc3sc(c(C)c3c2)-c4ccnc(N)n4] was tested, and the IC50 was greater than 5 µM. Work on COc1cccc(N2CCN(C(=O)c3ccc4sc(-c5ccnc(N)n5)c(C)c4c3)CC2)c1 [Example 542, COc1cccc(c1)N2CCN(CC2)C(═O)c3ccc4sc(c(C)c4c3)-c5ccnc(N)n5] yielded an IC50 greater than 5 µM. Work on Cc1c(-c2ccnc(N)n2)sc2ccc(C(=O)N[C@@H](C)c3ccccc3)cc12 [Example 376, C[C@H](NC(═O)c1ccc2sc(c(C)c2c1)-c3ccnc(N)n3)c4ccccc4] yielded an IC50 of less than 5 µM. Compound Cc1ccc(CCNC(=O)c2ccc3sc(-c4ccnc(N)n4)c(C)c3c2)cc1 [Example 392, Cc1ccc(CCNC(═O)c2ccc3sc(c(C)c3c2)-c4ccnc(N)n4)cc1] has an IC50 greater than 5 µM. Compound Cc1c(-c2ccnc(N)n2)sc2ccc(C(=O)N3CCC(C(N)=O)CC3)cc12 [Example 494, Cc1c(sc2ccc(cc12)C(═O)N3CCC(CC3)C(N)═O)-c4ccnc(N)n4] has an IC50 greater than 5 µM. Compound COC(=O)C1CCN(C(=O)c2ccc3sc(-c4ccnc(N)n4)c(C)c3c2)CC1 [Example 504, COC(═O)C1CCN(CC1)C(═O)c2ccc3sc(c(C)c3c2)-c4ccnc(N)n4] has an IC50 greater than 5 µM. Compound Cc1c(-c2ccnc(N)n2)sc2ccc(C(=O)N[C@H](C)c3ccccc3)cc12 [Example 377, C[C@@H](NC(═O)c1ccc2sc(c(C)c2c1)-c3ccnc(N)n3)c4ccccc4] has an IC50 of less than 5 µM. Cc1c(-c2ccnc(N)n2)sc2ccc(C(=O)NC3CCCCC3C)cc12 (stereo not drawn) [Example 371, CC1CCCCC1NC(═O)c2ccc3sc(c(C)c3c2)-c4ccnc(N)n4] showed an IC50 greater than 5 µM. With Cc1c(-c2ccnc(N)n2)sc2ccc(C(=O)NC3CC3)cc12 [Example 333, Cc1c(sc2ccc(cc12)C(═O)NC3CC3)-c4ccnc(N)n4] the IC50 was less than 5 µM. Cc1c(-c2ccnc(N)n2)sc2ccc(C(=O)N3Cc4ccccc4C3)cc12 [Example 491, Cc1c(sc2ccc(cc12)C(═O)N3Cc4ccccc4C3)-c5ccnc(N)n5] was tested, and the IC50 was less than 5 µM.
